Laboratory results as given in patent US9611453B2, “Micromechanical devices for control of cell-cell interaction, and methods of use thereof” (The Regents of the University of California, priority 2007, dated 2017).

What was measured:
[1] = system: liver sinusoidal endothelial cells (LSEC); assay: SE-1 expression of cultured LSEC (immunohistochemistry and Western blotting); type: cell-based; details: primary rat LSEC cultured in the presence of OV, day 3
Method: For example, immunohistochemistry and Western blotting were used to characterize expression of the specific EC markers RECA, SE-1, PECAM and AcLDL in isolated primary rat LSECs were cultured under the following conditions: a) on the different ECM proteins including, Collagen-I, Fibronectin, Laminin, and Collagen-IV; b) with various combinations of supportive cells, using the micromechanical reconfigurable culture method described herein to enable tracking of individual cell types, separation into pure populations for analysis, and deconvolution of contact-mediated versus soluble signals; and c) in the presence of the tyrosine phosphatase inhibitor, orthovanadate (OV).
In addition, the co-culture of LSEC with hepatocytes or fibroblast-stabilized hepatocytes induced LSEC proliferation as well as the activation of the transcription factor STAT-1.

LSEC = details: previously demonstrated (Fujimoto, H. et al. 2006); cited from earlier work
3T3 fibroblasts = assay: Viability assay of hepatocyte / 3T3 fibroblast co-culture after drug exposure, populations separated on micromechanical substrates; type: cell-based, murine
Source text: FIG. 13 depicts population-specific readout or selective interrogation. Hepatocytes and 3T3 fibroblasts are co-cultured to maintain hepatocyte differentiation. In (A) the drug Pyrilamine is introduced while the cells are in co-culture. By using the micromechanical substrates, the two cell populations are separated prior to viability assay, allowing the viability of each cell type to be assessed independently. […] In (B) the effect of the drug Methapyrilamine is compared when the cells are in co-culture or when the 3T3 are alone.
In another embodiment, in addition to the selective stimulation described above, one can separate a subpopulation of cells from a culture in order to assay those cells specifically; this is known as selective interrogation. One example of selective interrogation is shown in FIG. 11, where SEC cells are separated out from a culture of many cell types, and a Western Blot is performed on the purified SEC population. Another example is in FIG. 15, where hepatocytes and 3T3 fibroblasts are separated before viability assays are performed on each population.

[O]=[V]([O-])([O-])[O-] [OV, orthovanadate]
SE-1 expression [1]: strongly maintaining
LSEC apoptosis (LSEC): inhibited LSEC apoptosis

CN(C)CCN(Cc1cccs1)c1ccccn1 [Methapyrilamine]
sensitivity of 3T3 to the toxic effects, co-culture versus 3T3 alone (3T3 fibroblasts; 3T3 in co-culture with hepatocytes or alone, FIG. 13B): more sensitive to the toxic effects of the drug when alone

COc1ccc(CN(CCN(C)C)c2ccccn2)cc1 [Pyrilamine]
sensitivity to the toxic effects (viability), 3T3 versus hepatocytes (3T3 fibroblasts; drug introduced while hepatocytes and 3T3 are in co-culture, populations separated prior to viability assay, FIG. 13A): 3T3 are shown to be more sensitive
